Experimental data: publication PMC12155096 (International Journal of Molecular Sciences, 2025)
pIC50: −log10 of the molar value. Structures can show the parent of a compound that is named as a salt. Where two headings read alike, the source gives them in different places.

Columns and labels:
[1] = biological target: Photinus pyralis (firefly) luciferase (Photinus pyralis, UniProt P08659); test: biochemical; format: biochemical
human CYP1A2 = biological target: T1, human CYP1A2 (Homo sapiens, UniProt P05177)
T1 sequence (P05177 1-516): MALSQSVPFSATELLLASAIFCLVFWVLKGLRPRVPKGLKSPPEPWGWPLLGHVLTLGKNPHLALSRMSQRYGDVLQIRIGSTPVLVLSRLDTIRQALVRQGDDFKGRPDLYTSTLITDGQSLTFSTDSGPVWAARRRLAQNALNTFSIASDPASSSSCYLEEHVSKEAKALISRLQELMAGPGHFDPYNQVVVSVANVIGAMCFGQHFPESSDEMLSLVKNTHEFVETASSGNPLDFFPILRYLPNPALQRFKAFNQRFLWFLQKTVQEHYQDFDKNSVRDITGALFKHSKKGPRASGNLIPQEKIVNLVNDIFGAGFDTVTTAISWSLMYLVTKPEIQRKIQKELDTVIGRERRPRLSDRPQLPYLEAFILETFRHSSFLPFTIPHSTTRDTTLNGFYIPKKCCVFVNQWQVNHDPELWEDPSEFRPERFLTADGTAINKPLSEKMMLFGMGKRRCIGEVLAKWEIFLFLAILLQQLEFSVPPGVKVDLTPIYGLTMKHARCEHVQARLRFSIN

human CYP2C9 [2] = biological target: T2, human CYP2C9 (Homo sapiens, UniProt P11712)
human CYP2C19 [3] = biological target: T3, human CYP2C19 (Homo sapiens, UniProt P33261)
human CYP2D6 = human CYP2D6 (Homo sapiens, UniProt P10635)
human CYP2C9 [4] = biological target: T2, human CYP2C9; test: biochemical
human CYP2C19 [5] = biological target: T3, human CYP2C19; test: biochemical

Photinus pyralis (firefly) luciferase, sequence (P08659 whole entry): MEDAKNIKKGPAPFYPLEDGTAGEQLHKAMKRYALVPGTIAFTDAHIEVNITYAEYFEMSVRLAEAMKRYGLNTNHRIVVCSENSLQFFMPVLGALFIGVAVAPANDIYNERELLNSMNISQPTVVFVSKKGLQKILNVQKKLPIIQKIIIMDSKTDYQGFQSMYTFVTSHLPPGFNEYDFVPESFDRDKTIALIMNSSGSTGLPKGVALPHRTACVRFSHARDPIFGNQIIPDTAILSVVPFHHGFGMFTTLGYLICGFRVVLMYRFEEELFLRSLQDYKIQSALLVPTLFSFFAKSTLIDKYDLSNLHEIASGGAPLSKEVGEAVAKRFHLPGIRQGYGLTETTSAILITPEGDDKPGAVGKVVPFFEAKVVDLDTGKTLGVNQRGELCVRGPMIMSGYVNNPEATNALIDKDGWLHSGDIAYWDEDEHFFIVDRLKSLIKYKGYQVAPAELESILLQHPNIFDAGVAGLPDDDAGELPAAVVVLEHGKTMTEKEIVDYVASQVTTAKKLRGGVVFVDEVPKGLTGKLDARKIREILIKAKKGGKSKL
T3 sequence (P33261 whole entry): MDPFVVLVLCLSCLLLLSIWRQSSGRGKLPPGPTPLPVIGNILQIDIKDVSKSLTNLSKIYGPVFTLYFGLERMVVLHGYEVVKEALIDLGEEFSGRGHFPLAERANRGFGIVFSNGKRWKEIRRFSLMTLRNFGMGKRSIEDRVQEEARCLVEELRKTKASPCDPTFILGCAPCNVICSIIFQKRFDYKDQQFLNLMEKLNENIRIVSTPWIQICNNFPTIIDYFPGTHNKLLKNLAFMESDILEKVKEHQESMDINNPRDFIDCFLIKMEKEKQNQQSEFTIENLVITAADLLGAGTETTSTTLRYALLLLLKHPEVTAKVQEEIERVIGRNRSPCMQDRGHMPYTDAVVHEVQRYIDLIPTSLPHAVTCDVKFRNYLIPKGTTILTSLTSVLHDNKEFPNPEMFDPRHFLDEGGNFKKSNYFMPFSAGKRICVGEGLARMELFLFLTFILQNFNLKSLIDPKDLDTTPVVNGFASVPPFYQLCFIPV
human CYP2D6, sequence (P10635 whole entry): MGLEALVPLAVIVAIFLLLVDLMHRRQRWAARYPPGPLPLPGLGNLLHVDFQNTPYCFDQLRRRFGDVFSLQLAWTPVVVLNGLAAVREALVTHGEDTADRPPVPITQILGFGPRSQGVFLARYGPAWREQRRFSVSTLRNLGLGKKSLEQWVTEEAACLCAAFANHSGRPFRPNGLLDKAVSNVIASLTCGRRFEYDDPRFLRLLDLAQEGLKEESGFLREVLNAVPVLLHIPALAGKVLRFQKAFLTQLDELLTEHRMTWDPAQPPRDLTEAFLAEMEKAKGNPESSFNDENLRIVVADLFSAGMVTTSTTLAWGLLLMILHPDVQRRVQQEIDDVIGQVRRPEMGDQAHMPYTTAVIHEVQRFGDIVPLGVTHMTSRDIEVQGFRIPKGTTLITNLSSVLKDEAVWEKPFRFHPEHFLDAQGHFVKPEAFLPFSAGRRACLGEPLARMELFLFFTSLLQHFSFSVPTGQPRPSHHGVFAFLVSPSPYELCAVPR
T2 sequence (P11712 whole entry): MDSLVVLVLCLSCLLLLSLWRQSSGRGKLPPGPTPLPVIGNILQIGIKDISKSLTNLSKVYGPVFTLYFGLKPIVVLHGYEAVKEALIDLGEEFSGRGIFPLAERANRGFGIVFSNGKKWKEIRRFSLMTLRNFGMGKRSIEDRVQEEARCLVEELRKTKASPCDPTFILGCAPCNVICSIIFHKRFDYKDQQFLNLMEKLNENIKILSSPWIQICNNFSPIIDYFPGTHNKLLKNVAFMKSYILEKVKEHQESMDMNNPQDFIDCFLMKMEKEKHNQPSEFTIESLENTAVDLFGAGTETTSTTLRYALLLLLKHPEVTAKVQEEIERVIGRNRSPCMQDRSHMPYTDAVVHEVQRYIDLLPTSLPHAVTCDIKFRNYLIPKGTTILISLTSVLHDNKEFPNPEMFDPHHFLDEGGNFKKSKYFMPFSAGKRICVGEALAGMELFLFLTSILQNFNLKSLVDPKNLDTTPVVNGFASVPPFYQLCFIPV

Compound: Cl.Cl.c1ccc(CNCCNCc2ccccc2)cc1
- Luciferase IC50 [1]: Inactive
- CYP1A2 Efficacy (human CYP1A2): 20.22 ± 5.13 (-47 ± 10) %
- CYP2C9 IC50 (human CYP2C9 [2]): Inactive
- CYP2C19 Efficacy (human CYP2C19 [3]): 8.08 ± 0.55 (-122 ± 16) %
- CYP2D6 Efficacy (human CYP2D6): 0.79 ± 0.18 (-110 ± 5) %

Compound: CC(=O)C1(O)CCC2C3CCC4=CC(=O)CCC4(C)C3CCC21C (stereo not drawn) [17alpha-Hydroxyprogesterone]
- Luciferase IC50 (half-maximal inhibitory concentration) [1]: Inactive

Compound: C[C@@H]1CC[C@H]2[C@@H](C)C(=O)O[C@@H]3O[C@@]4(C)CC[C@@H]1[C@]32OO4 [Artemisinin]
- Luciferase IC50 (half-maximal inhibitory concentration) [1]: Inactive

Compound: CCOC(=O)OC(C)OC(=O)[C@@H]1N2C(=O)[C@@H](NC(=O)[C@H](N)c3ccccc3)[C@H]2SC1(C)C (stereo partly shown) [Bacampicillin hydrochloride]
- Luciferase IC50 (half-maximal inhibitory concentration) [1]: Inactive

Compound: Cc1c(-c2ccc(O)cc2)n(Cc2ccc(OCCN3CCCCCC3)cc2)c2ccc(O)cc12 [Bazedoxifene]
- Luciferase IC50 (half-maximal inhibitory concentration) [1]: Inactive

Compound: CCCCCCCCCCCCCCCC[N+](C)(C)Cc1ccccc1.[Cl-] [Benzylhexadecyldimethylammonium chloride]
- Luciferase IC50 [1]: Inactive
- CYP1A2 Efficacy (human CYP1A2): 75.23 ± 5.09 (-82 ± 8) %
- CYP2C9 Efficacy (human CYP2C9 [2]): 46.2 ± 8.63 (-120 ± 17) %
- CYP2C19 Efficacy (human CYP2C19 [3]): 46.97 ± 13.09 (-144 ± 26) %
- CYP2D6 Efficacy (human CYP2D6): 0.34 ± 0.06 (-98 ± 2) %

Compound: [Cl-].c1ccc(C[P+](c2ccccc2)(c2ccccc2)c2ccccc2)cc1 [Benzyltriphenylphosphonium chloride]
- Luciferase IC50 (half-maximal inhibitory concentration) [1]: Inactive

Compound: C[C@@H](Cc1ccccc1)NCc1ccccc1Cl.Cl [Clobenzorex hydrochloride]
- Luciferase IC50 [1]: Inactive
- CYP1A2 Efficacy (human CYP1A2): 15.49 ± 0 (-71 ± 4) %
- CYP2C9 IC50 (human CYP2C9 [2]): Inactive
- CYP2C19 Efficacy (human CYP2C19 [3]): 1.49 ± 0.1 (-137 ± 12) %
- CYP2D6 Efficacy (human CYP2D6): 0.15 ± 0.03 (-111 ± 2) %

Compound: CC#C[C@]1(O)CC[C@H]2[C@@H]3C[C@H](C)C4=CC(=O)CC[C@]4(C)[C@H]3CC[C@@]21C [Dimethisteron]
- Luciferase IC50 [1]: Inactive
- CYP1A2 IC50 (human CYP1A2): Inactive
- CYP2D6 IC50 (human CYP2D6): Inactive
- pIC50 (human CYP2C9 [4]; CYP2C9 IC50): 4.62
- pIC50 (human CYP2C19 [5]; CYP2C19 IC50): 5.03

Compound: CCC(CN)=C(c1ccccc1)c1ccccc1.Cl [Etifelmine hydrochloride]
- Luciferase IC50 [1]: Inactive
- CYP1A2 Efficacy (human CYP1A2): 14.36 ± 3.71 (-50 ± 13) %
- CYP2C9 Efficacy (human CYP2C9 [2]): 11.85 ± 3.88 (-96 ± 8) %
- CYP2C19 Efficacy (human CYP2C19 [3]): 5.99 ± 2.37 (-107 ± 10) %
- CYP2D6 Efficacy (human CYP2D6): 4.07 ± 0.52 (-106 ± 3) %

Compound: COc1ccc(CCN(C)CCCC(C#N)(c2cc(OC)c(OC)c(OC)c2)C(C)C)cc1OC (stereo not shown) [Gallopamil hydrochloride]
- Luciferase IC50 (half-maximal inhibitory concentration) [1]: Inactive

Compound: CCCCCCCCCCCCCCCC[N+](C)(C)C.[Cl-] [Hexadecyl trimethyl ammonium chloride]
- Luciferase IC50 [1]: Inactive
- CYP1A2 IC50 (human CYP1A2): Inactive
- CYP2C9 IC50 (human CYP2C9 [2]): Inactive
- CYP2C19 Efficacy (human CYP2C19 [3]): 43.2 ± 0.0 (-68 ± 16) %
- CYP2D6 Efficacy (human CYP2D6): 0.8 ± 0.05 (-93 ± 8) %

Compound: CC(CNC1CCCCC1)OC(=O)c1ccccc1 (stereo not shown) [Hexylcaine hydrochloride]
- Luciferase IC50 (half-maximal inhibitory concentration) [1]: Inactive

Compound: OCCOCCN1CCN(C(c2ccccc2)c2ccc(Cl)cc2)CC1 (stereo not shown) [Hydroxyzine hydrochloride]
- Luciferase IC50 [1]: Inactive

Compound: CC(C)(C)NC(=O)[C@@H]1CN(Cc2cccnc2)CCN1C[C@@H](O)C[C@@H](Cc1ccccc1)C(=O)N[C@H]1c2ccccc2C[C@H]1O [Indinavir sulfate]
- Luciferase IC50 (half-maximal inhibitory concentration) [1]: Inactive

Compound: Clc1ccc(C(Cn2ccnc2)OCc2c(Cl)cccc2Cl)c(Cl)c1 (stereo not shown) [Isoconazole nitrate]
- Luciferase IC50 (half-maximal inhibitory concentration) [1]: Inactive

Compound: CCC(C)n1ncn(-c2ccc(N3CCN(c4ccc(OCC5COC(Cn6cncn6)(c6ccc(Cl)cc6Cl)O5)cc4)CC3)cc2)c1=O (stereo not shown) [Itraconazole]
- Luciferase IC50 (half-maximal inhibitory concentration) [1]: Inactive
- CYP1A2 IC50 (half-maximal inhibitory concentration) (human CYP1A2): Inactive
- CYP2C9 Efficacy (in parenthesis) (human CYP2C9 [2]; human): 14.05 ± 3.21 (-81 ± 13) %
- CYP2C19 Efficacy (in parenthesis) (human CYP2C19 [3]; human): 8.3 ± 4.22 (-53 ± 15) %
- CYP2D6 IC50 (half-maximal inhibitory concentration) (human CYP2D6): Inactive
- pIC50 (human CYP2C9 [4]; CYP2C9 IC50 (half-maximal inhibitory concentration)): 4.85
- pIC50 (human CYP2C19 [5]; CYP2C19 IC50 (half-maximal inhibitory concentration)): 5.08

Compound: CNCCCC12CCC(c3ccccc31)c1ccccc12 [Maprotiline hydrochloride]
- Luciferase IC50 [1]: Inactive

Compound: CCN(CCCCOC(=O)c1ccc(OC)c(OC)c1)C(C)Cc1ccc(OC)cc1 (stereo not shown) [Mebeverine hydrochloride]
- Luciferase IC50 (half-maximal inhibitory concentration) [1]: Inactive

Compound: CCCNC(C)(C)COC(=O)c1ccccc1 [Meprylcaine hydrochloride]
- Luciferase IC50 (half-maximal inhibitory concentration) [1]: Inactive

Compound: CN1C[C@H](CNC(=O)OCc2ccccc2)C[C@@H]2c3cccc4c3c(cn4C)C[C@H]21 [Metergoline]
- Luciferase IC50 [1]: Inactive

Compound: CC[C@@H](CO)NC(=O)[C@@H]1C=C2c3cccc4[nH]cc(c34)C[C@H]2N(C)C1 [Methergine]
- Luciferase IC50 [1]: Inactive

Compound: CN(C)c1ccc2nc3ccc(=[N+](C)C)cc-3sc2c1 [Methylene blue]
- pIC50 [1]: 4.54

Compound: CC#C[C@]1(O)CC[C@H]2[C@@H]3CCC4=CC(=O)CCC4=C3[C@@H](c3ccc(N(C)C)cc3)C[C@@]21C [Mifepristone]
- Luciferase IC50 [1]: Inactive

Compound: COCCOC(=O)C1=C(C)NC(C)=C(C(=O)OC(C)C)C1c1cccc([N+](=O)[O-])c1 (stereo not shown) [Nimodipine]
- Luciferase IC50 (half-maximal inhibitory concentration) [1]: Inactive

Compound: Cc1ccc2nc(N)[nH]c(=O)c2c1Sc1ccncc1.Cl.Cl [Nolatrexed dihydrochloride]
- Luciferase IC50 [1]: Inactive
- CYP1A2 Efficacy (human CYP1A2): 3.33 ± 0.9 (-94 ± 12) %
- CYP2C9 Efficacy (human CYP2C9 [2]): 4.82 ± 1.17 (-95 ± 9) %
- CYP2C19 Efficacy (human CYP2C19 [3]): 3.3 ± 1.68 (-116 ± 1) %
- CYP2D6 Efficacy (human CYP2D6): 14.43 ± 1.84 (-95 ± 12) %

Compound: COc1cc(NC(C)CCCN)c2ncccc2c1 (stereo not shown) [Primaquine diphosphate]
- Luciferase IC50 (half-maximal inhibitory concentration) [1]: Inactive

Compound: CCCNCC(O)COc1ccccc1C(=O)CCc1ccccc1 (stereo not shown) [Propafenone hydrochloride]
- Luciferase IC50 (half-maximal inhibitory concentration) [1]: Inactive

Compound: O=C(c1ccc(OCCN2CCCCC2)cc1)c1c(-c2ccc(O)cc2)sc2cc(O)ccc12 [Raloxifene hydrochloride]
- Luciferase IC50 (half-maximal inhibitory concentration) [1]: Inactive

Compound: CSc1ccc2c(c1)N(CCC1CCCCN1C)c1ccccc1S2 (stereo not shown) [Thioridazine hydrochloride]
- Luciferase IC50 (half-maximal inhibitory concentration) [1]: Inactive

Compound: Clc1ccccc1CN1CCc2sccc2C1 [Ticlopidine hydrochloride]
- pIC50 [1]: 5.06

Compound: CCCCCCCCCCCCCCCCCC(=O)O.OCCN(CCO)CCO [Triethanolamine stearate]
- Luciferase Efficacy (in parenthesis) [1]: 74.82 ± 6.08 (-26 ± 14) %
- pIC50 ([1]; read-out: Luciferase IC50 (half-maximal inhibitory concentration)): 4.13
- CYP1A2 Efficacy (in parenthesis) (human CYP1A2): 3.98 ± 2.02 (-97 ± 4) %
- pIC50 (human CYP1A2): 5.40
- CYP2C9 Efficacy (in parenthesis) (human CYP2C9 [2]): 1.38 ± 0.34 (-98 ± 6) %
- pIC50 (human CYP2C9 [2]): 5.86
- CYP2C19 Efficacy (in parenthesis) (human CYP2C19 [3]): 0.42 ± 0.18 (-127 ± 1) %
- pIC50 (human CYP2C19 [3]): 6.38
- CYP2D6 Efficacy (in parenthesis) (human CYP2D6): 35.34 ± 0 (-82 ± 6) %
- pIC50 (human CYP2D6): 4.45

Compound: CC(CN(C)C)CN1c2ccccc2Sc2ccccc21.CC(CN(C)C)CN1c2ccccc2Sc2ccccc21.O=C(O)C(O)C(O)C(=O)O (stereo not shown) [Trimeprazine tartrate]
- Luciferase IC50 (half-maximal inhibitory concentration) [1]: Inactive

Compound: CCOc1ccccc1OCC1CNCCO1 (stereo not shown) [Viloxazine hydrochloride]
- Luciferase IC50 (half-maximal inhibitory concentration) [1]: Inactive

Compound: CC(C)c1nc(CN(C)C(=O)N[C@H](C(=O)N[C@@H](Cc2ccccc2)C[C@H](O)[C@H](Cc2ccccc2)NC(=O)OCc2cncs2)C(C)C)cs1 [ritonavir, reference compound]
- Luciferase IC50 (half-maximal inhibitory concentration) [1]: Inactive

Compound: Diniconazole
- Luciferase IC50 (half-maximal inhibitory concentration) [1]: Inactive

Compound: HMR1171 trifluoroacetate (1:1)
- Luciferase IC50 [1]: Inactive
- CYP1A2 IC50 (human CYP1A2): Inactive
- pIC50 (human CYP2C9 [2]): 4.55
- pIC50 (human CYP2C19 [3]): 4.55
- pIC50 (human CYP2D6): 5.05

Compound: Kadethrin
- Luciferase IC50 [1]: Inactive
